Assay results from patent publication US8466181B2, “1,2,3-triazole-imidazole compounds” (Hoffmann-La Roche Inc., priority 2010, dated 2013).
pKi: −log10 of the molar value.

Target: T1, human GABA A receptor α5β3γ2 (GABA Aa5) (Homo sapiens, UniProt P18507+P31644)
T1 construct: expressed in transfected cells; host or cells: HEK293 cells, transiently transfected; membranes prepared
Assay: [3H]flumazenil competition binding, HEK293 cells expressing human receptors
Conditions: displacement of [3H]flumazenil 0.5 nM; HEK293 transiently transfected human receptors; means of two determinations; read-out: hKi (GABA Aa5)
Protocol: The ability of compounds present invention to bind to GABA A receptor subtypes was determined by competition for [^3H]flumazenil (85 Ci/mmol; Roche) binding to HEK293 cells expressing rat (stably transfected) or human (transiently transfected) receptors of composition α1β2/3γ2, α2β3γ2, α3β3γ2 and α5β3γ2.
Cell pellets were suspended in Krebs-tris buffer (4.8 mM KCl, 1.2 mM CaCl2, 1.2 mM MgCl2, 120 mM NaCl, 15 mM Tris; pH 7.5; binding assay buffer), homogenized by polytron for ca. 20 sec on ice and centrifuged for 60 min at 4° C. (50000 g; Sorvall, rotor: SM24=20000 rpm). The cell pellets were resuspended in Krebs-tris buffer and homogenized by polytron for ca. 15 sec on ice. Protein was measured (Bradford method, Bio-Rad) and aliquots of 1 mL were prepared and stored at −80° C.
Assays were incubated to equilibrium for 1 hour at 4° C. and harvested onto GF/C uni-filters (Packard) by filtration using a Packard harvester and washing with ice-cold wash buffer (50 mM Tris; pH 7.5). After drying, filter-retained radioactivity was detected by liquid scintillation counting.
Ki values were calculated using Excel-Fit (Microsoft) and are the means of two determinations.
Representative test results, obtained by the above described assay measuring binding affinity to HEK293 cells expressing human (h) receptors, are shown in Table 1 below.

Structure (SMILES)	pKi
Cn1nnc(-c2ccccc2F)c1-c1cn(-c2ccc(C(=O)O)cn2)cn1 [Example 21, 6-(4-(4-(2-Fluorophenyl)-1-methyl-1H-1,2,3-triazol-5-yl)-1H-imidazol-1-yl)nicotinic acid]	7.07
COC(=O)c1ccc(-n2cnc(-c3c(-c4ccccc4Cl)nnn3C)c2)nc1 [Example 17, Methyl 6-(4-(4-(2-chlorophenyl)-1-methyl-1H-1,2,3-triazol-5-yl)-1H-imidazol-1-yl)nicotinate]	7.16
Cn1nnc(-c2ccc(F)cc2)c1-c1cn(-c2ccc(C(=O)N3CC4(COC4)C3)cn2)cn1 [Example 14, (6-{4-[5-(4-Fluoro-phenyl)-3-methyl-3H-[1,2,3]triazol-4-yl]-imidazol-1-yl}-pyridin-3-yl)-(2-oxa-6-aza-spiro[3.3]hept-6-yl)-methanone]	7.42
Cn1nnc(-c2ccc(F)cc2)c1-c1cn(-c2ccc(C(=O)NC3CCOCC3)cn2)cn1 [Example 12, 6-{4-[5-(4-Fluoro-phenyl)-3-methyl-3H-[1,2,3]triazol-4-yl]-imidazol-1-yl}-N-(tetrahydropyran-4-yl)-nicotinamide]	7.48
Cc1nnn(-c2ccccc2F)c1-c1cn(-c2ccc(C(=O)NCC3CC3)cn2)cn1 [Example 53, N-(Cyclopropylmethyl)-6-(4-(1-(2-fluorophenyl)-4-methyl-1H-1,2,3-triazol-5-yl)-1H-imidazol-1-yl)nicotinamide]	7.49
Cc1nnn(-c2ccc(F)cc2)c1-c1cn(-c2ccc(C(=O)NN3CCOCC3)cn2)cn1 [Example 45, 6-(4-(1-(4-Fluorophenyl)-4-methyl-1H-1,2,3-triazol-5-yl)-1H-imidazol-1-yl)-N-morpholinonicotinamide]	7.16
Cc1nnn(-c2ccc(F)cc2)c1-c1cn(-c2ccc(C(=O)N3CC4(COC4)C3)cn2)cn1 [Example 39, (6-(4-(1-(4-Fluorophenyl)-4-methyl-1H-1,2,3-triazol-5-yl)-1H-imidazol-1-yl)pyridin-3-yl)(2-oxa-6-azaspiro[3.3]heptan-6-yl)methanone]	7.45
Cn1nnc(-c2ccccc2Cl)c1-c1cn(-c2ccc(C(N)=O)cn2)cn1 [Example 19, 6-(4-(4-(2-Chlorophenyl)-1-methyl-1H-1,2,3-triazol-5-yl)-1H-imidazol-1-yl)nicotinamide]	7.18
Cn1nnc(-c2ccccc2F)c1-c1cn(-c2ccc(C(F)(F)F)cn2)cn1 [Example 30, 2-(4-(4-(2-Fluorophenyl)-1-methyl-1H-1,2,3-triazol-5-yl)-1H-imidazol-1-yl)-5-(trifluoromethyl)pyridine]	7.19
Cc1nnn(-c2ccc(F)cc2)c1-c1cn(-c2ccc(C(F)(F)F)cn2)cn1 [Example 34, 2-{4-[3-(4-Fluoro-phenyl)-5-methyl-3H-[1,2,3]triazol-4-yl]-imidazol-1-yl}-5-trifluoromethyl-pyridine]	7.34
Cn1nnc(-c2ccccc2F)c1-c1cn(-c2ccc(C(=O)N3CC4(COC4)C3)cn2)cn1 [Example 26, (6-(4-(4-(2-Fluorophenyl)-1-methyl-1H-1,2,3-triazol-5-yl)-1H-imidazol-1-yl)pyridin-3-yl)(2-oxa-6-azaspiro[3.3]heptan-6-yl)methanone]	7.18
CC(=O)c1ccc(-n2cnc(-c3c(C)nnn3-c3ccc(F)cc3)c2)cc1 [Example 32, 1-(4-{4-[3-(4-Fluoro-phenyl)-5-methyl-3H-[1,2,3]triazol-4-yl]-imidazol-1-yl}-phenyl)-ethanone]	7.59

Now those with a higher pKi, led by results:

pKi	Structure (SMILES)
7.90	Cc1nnn(-c2ccc(F)cc2)c1-c1cn(-c2ccc(C(N)=O)cn2)cn1 [Example 40, 6-(4-(1-(4-Fluorophenyl)-4-methyl-1H-1,2,3-triazol-5-yl)-1H-imidazol-1-yl)nicotinamide]
8.02	Cn1nnc(-c2ccccc2F)c1-c1cn(-c2ccc(C(=O)NC3CC3)cn2)cn1 [Example 29, N-Cyclopropyl-6-(4-(4-(2-fluorophenyl)-1-methyl-1H-1,2,3-triazol-5-yl)-1H-imidazol-1-yl)nicotinamide]
7.79	COC(=O)c1ccc(-n2cnc(-c3c(-c4ccccc4F)nnn3C)c2)nc1 [Example 20, Methyl 6-(4-(4-(2-fluorophenyl)-1-methyl-1H-1,2,3-triazol-5-yl)-1H-imidazol-1-yl)nicotinate]
8.49	Cc1nnn(-c2ccc(F)cc2)c1-c1cn(-c2ccc(C(=O)NC3CC3)cn2)cn1 [Example 42, N-Cyclopropyl-6-(4-(1-(4-fluorophenyl)-4-methyl-1H-1,2,3-triazol-5-yl)-1H-imidazol-1-yl)nicotinamide]
7.73	Cn1nnc(-c2ccc(F)cc2)c1-c1cn(-c2ccc(C(N)=O)cc2)cn1 [Example 7, 4-{4-[5-(4-Fluoro-phenyl)-3-methyl-3H-[1,2,3]triazol-4-yl]-imidazol-1-yl}-benzamide]
7.71	Cn1nnc(-c2ccccc2F)c1-c1cn(-c2ccc(C(N)=O)cn2)cn1 [Example 25, 6-(4-(4-(2-Fluorophenyl)-1-methyl-1H-1,2,3-triazol-5-yl)-1H-imidazol-1-yl)nicotinamide]
7.82	Cc1nnn(-c2ccccc2F)c1-c1cn(-c2ccc(C(=O)NC(C)C)cn2)cn1 [Example 43, 6-(4-(1-(2-Fluorophenyl)-4-methyl-1H-1,2,3-triazol-5-yl)-1H-imidazol-1-yl)-N-isopropylnicotinamide]
7.68	Cc1nnn(-c2ccc(F)cc2)c1-c1cn(-c2ccc(C(=O)NC(C)(C)CO)cn2)cn1 [Example 41, 6-(4-(1-(4-Fluorophenyl)-4-methyl-1H-1,2,3-triazol-5-yl)-1H-imidazol-1-yl)-N-(1-hydroxy-2-methylpropan-2-yl)nicotinamide]
